Measured values published in ChEMBL document CHEMBL3885881, “DrugMatrix”.

Organism: Rattus norvegicus
Assay: DrugMatrix - Regimen: Daily Repeat
Type: toxicity, organism-based, Sprague-Dawley
Parameters: regimen Daily Repeat, gender Male, age 6-8 weeks
Settings: in vivo, iv, vehicle 100 % SALINE; for ABSOLUTE BASOPHIL / ABSOLUTE EOSINOPHIL / ABSOLUTE LYMPHOCYTE / ABSOLUTE MONOCYTE / ABSOLUTE SEGMENTED NEUTROPHIL / BASOPHIL / EOSINOPHIL / ERYTHROCYTE COUNT / HEMATOCRIT / HEMOGLOBIN / LEUKOCYTE COUNT / LYMPHOCYTE / MEAN CORPUSCULAR HEMOGLOBIN / MEAN CORPUSCULAR HEMOGLOBIN CONCENTRATION / MEAN CORPUSCULAR VOLUME / MONOCYTE / NEUTROPHIL / NUCLEATED RED BLOOD CELLS / PLATELET COUNT: tissue Blood; for ALANINE AMINOTRANSFERASE / ALBUMIN / ALKALINE PHOSPHATASE / ASPARTATE AMINOTRANSFERASE / BLOOD UREA NITROGEN / CARBON DIOXIDE / CHLORIDE / CHOLESTEROL / CREATINE PHOSPHOKINASE / CREATININE / GLUCOSE / LACTATE DEHYDROGENASE / LIPASE / PHOSPHORUS / POTASSIUM / SODIUM / TOTAL BILIRUBIN / TOTAL PROTEIN / URIC ACID: tissue Plasma
[1] = 0 mg/kg, 72 h, dose level Control, time 3 day
[2] = 0 mg/kg, 120 h, dose level Control, time 5 day
[3] = 0.05 mg/kg, 72 h, dose level Low, time 3 day
[4] = 0.05 mg/kg, 120 h, dose level Low, time 5 day

SMILES: CC[C@]1(O)C[C@H]2CN(CCc3c([nH]c4ccccc34)[C@@](C(=O)OC)(c3cc4c(cc3OC)N(C=O)[C@H]3[C@@](O)(C(=O)OC)[C@H](OC(C)=O)[C@]5(CC)C=CCN6CC[C@]43[C@@H]65)C2)C1 [VINCRISTINE]
- ABSOLUTE BASOPHIL [1]: 0 CELLS/uL
- ABSOLUTE EOSINOPHIL [1]: 0 CELLS/uL
- ABSOLUTE LYMPHOCYTE [1]: 7637.67 CELLS/uL
- ABSOLUTE MONOCYTE [1]: 67.83 CELLS/uL
- ABSOLUTE SEGMENTED NEUTROPHIL [1]: 661.17 CELLS/uL
- BASOPHIL [1]: 0%
- EOSINOPHIL [1]: 0%
- ERYTHROCYTE COUNT [1]: 5.38 x10E6/uL
- HEMATOCRIT [1]: 33.67%
- HEMOGLOBIN [1]: 12.88 G/DL
- LEUKOCYTE COUNT [1]: 8.37 x10E3/uL
- LYMPHOCYTE [1]: 91.17%
- MEAN CORPUSCULAR HEMOGLOBIN [1]: 23.95 pg
- MEAN CORPUSCULAR HEMOGLOBIN CONCENTRATION [1]: 38.23 G/DL
- MEAN CORPUSCULAR VOLUME [1]: 62.6 fL
- MONOCYTE [1]: 0.83%
- NEUTROPHIL [1]: 8%
- NUCLEATED RED BLOOD CELLS [1]: 0.17 /100WBC
- PLATELET COUNT [1]: 865 x10E3/uL
- ALANINE AMINOTRANSFERASE [1]: 51.67 u/L
- ALBUMIN [1]: 3.97 G/DL
- ALKALINE PHOSPHATASE [1]: 351.17 u/L
- ASPARTATE AMINOTRANSFERASE [1]: 82.33 u/L
- BLOOD UREA NITROGEN [1]: 15.17 mg/dL
- CARBON DIOXIDE [1]: 34.5 mmol/L
- CHLORIDE [1]: 100 MEQ/L
- CHOLESTEROL [1]: 80.33 mg/dL
- CREATINE PHOSPHOKINASE [1]: 316.5 u/L
- CREATININE [1]: 0.17 mg/dL
- GLUCOSE [1]: 149.17 mg/dL
- LACTATE DEHYDROGENASE [1]: 105.67 u/L
- LIPASE [1]: 9.5 u/L
- PHOSPHORUS [1]: 10.87 mg/dL
- POTASSIUM [1]: 5.47 MEQ/L
- SODIUM [1]: 144.2 MEQ/L
- TOTAL BILIRUBIN [1]: 0.2 mg/dL
- TOTAL PROTEIN [1]: 5.83 G/DL
- URIC ACID [1]: 0.83 mg/dL
- ABSOLUTE BASOPHIL [2]: 0 CELLS/uL
- ABSOLUTE EOSINOPHIL [2]: 0 CELLS/uL
- ABSOLUTE LYMPHOCYTE [2]: 6333.5 CELLS/uL
- ABSOLUTE MONOCYTE [2]: 38.83 CELLS/uL
- ABSOLUTE SEGMENTED NEUTROPHIL [2]: 661 CELLS/uL
- BASOPHIL [2]: 0%
- EOSINOPHIL [2]: 0%
- ERYTHROCYTE COUNT [2]: 5.44 x10E6/uL
- HEMATOCRIT [2]: 34.17%
- HEMOGLOBIN [2]: 13.22 G/DL
- LEUKOCYTE COUNT [2]: 7.03 x10E3/uL
- LYMPHOCYTE [2]: 90.17%
- MEAN CORPUSCULAR HEMOGLOBIN [2]: 24.38 pg
- MEAN CORPUSCULAR HEMOGLOBIN CONCENTRATION [2]: 38.7 G/DL
- MEAN CORPUSCULAR VOLUME [2]: 62.95 fL
- MONOCYTE [2]: 0.5%
- NEUTROPHIL [2]: 9.33%
- NUCLEATED RED BLOOD CELLS [2]: 0 /100WBC
- PLATELET COUNT [2]: 924.33 x10E3/uL
- ALANINE AMINOTRANSFERASE [2]: 52.5 u/L
- ALBUMIN [2]: 3.97 G/DL
- ALKALINE PHOSPHATASE [2]: 364.83 u/L
- ASPARTATE AMINOTRANSFERASE [2]: 82.5 u/L
- BLOOD UREA NITROGEN [2]: 17 mg/dL
- CARBON DIOXIDE [2]: 32.33 mmol/L
- CHLORIDE [2]: 99.6 MEQ/L
- CHOLESTEROL [2]: 75.83 mg/dL
- CREATINE PHOSPHOKINASE [2]: 419 u/L
- CREATININE [2]: 0.21 mg/dL
- GLUCOSE [2]: 155 mg/dL
- LACTATE DEHYDROGENASE [2]: 111.5 u/L
- LIPASE [2]: 11.33 u/L
- PHOSPHORUS [2]: 10.32 mg/dL
- POTASSIUM [2]: 5.37 MEQ/L
- SODIUM [2]: 144.64 MEQ/L
- TOTAL BILIRUBIN [2]: 0.18 mg/dL
- TOTAL PROTEIN [2]: 5.98 G/DL
- URIC ACID [2]: 0.62 mg/dL
- ABSOLUTE BASOPHIL [3]: 0 CELLS/uL
- ABSOLUTE EOSINOPHIL [3]: 50 CELLS/uL
- ABSOLUTE LYMPHOCYTE [3]: 6489 CELLS/uL
- ABSOLUTE MONOCYTE [3]: 75.67 CELLS/uL
- ABSOLUTE SEGMENTED NEUTROPHIL [3]: 285.33 CELLS/uL
- BASOPHIL [3]: 0%
- EOSINOPHIL [3]: 0.67%
- ERYTHROCYTE COUNT [3]: 5.18 x10E6/uL
- HEMATOCRIT [3]: 30.77%
- HEMOGLOBIN [3]: 12.07 G/DL
- LEUKOCYTE COUNT [3]: 6.9 x10E3/uL
- LYMPHOCYTE [3]: 94.33%
- MEAN CORPUSCULAR HEMOGLOBIN [3]: 23.3 pg
- MEAN CORPUSCULAR HEMOGLOBIN CONCENTRATION [3]: 39.2 G/DL
- MEAN CORPUSCULAR VOLUME [3]: 59.47 fL
- MONOCYTE [3]: 1%
- NEUTROPHIL [3]: 4%
- NUCLEATED RED BLOOD CELLS [3]: 0.33 /100WBC
- PLATELET COUNT [3]: 1561 x10E3/uL
- ALANINE AMINOTRANSFERASE [3]: 52.67 u/L
- ALBUMIN [3]: 4.03 G/DL
- ALKALINE PHOSPHATASE [3]: 301.33 u/L
- ASPARTATE AMINOTRANSFERASE [3]: 100 u/L
- BLOOD UREA NITROGEN [3]: 13.67 mg/dL
- CARBON DIOXIDE [3]: 35.67 mmol/L
- CHLORIDE [3]: 98 MEQ/L
- CHOLESTEROL [3]: 80.67 mg/dL
- CREATINE PHOSPHOKINASE [3]: 355.67 u/L
- CREATININE [3]: 0.15 mg/dL
- GLUCOSE [3]: 138.33 mg/dL
- LACTATE DEHYDROGENASE [3]: 108.33 u/L
- LIPASE [3]: 9 u/L
- PHOSPHORUS [3]: 10.47 mg/dL
- POTASSIUM [3]: 5.91 MEQ/L
- SODIUM [3]: 142.8 MEQ/L
- TOTAL BILIRUBIN [3]: 0.17 mg/dL
- TOTAL PROTEIN [3]: 6 G/DL
- URIC ACID [3]: 0.5 mg/dL
- ABSOLUTE BASOPHIL [4]: 0 CELLS/uL
- ABSOLUTE EOSINOPHIL [4]: 15.67 CELLS/uL
- ABSOLUTE LYMPHOCYTE [4]: 5856.67 CELLS/uL
- ABSOLUTE MONOCYTE [4]: 77.33 CELLS/uL
- ABSOLUTE SEGMENTED NEUTROPHIL [4]: 217 CELLS/uL
- BASOPHIL [4]: 0%
- EOSINOPHIL [4]: 0.33%
- ERYTHROCYTE COUNT [4]: 4.27 x10E6/uL
- HEMATOCRIT [4]: 27.3%
- HEMOGLOBIN [4]: 10.7 G/DL
- LEUKOCYTE COUNT [4]: 6.17 x10E3/uL
- LYMPHOCYTE [4]: 94%
- MEAN CORPUSCULAR HEMOGLOBIN [4]: 25.1 pg
- MEAN CORPUSCULAR HEMOGLOBIN CONCENTRATION [4]: 39.17 G/DL
- MEAN CORPUSCULAR VOLUME [4]: 64.03 fL
- MONOCYTE [4]: 1.33%
- NEUTROPHIL [4]: 4.33%
- NUCLEATED RED BLOOD CELLS [4]: 0 /100WBC
- PLATELET COUNT [4]: 1370.67 x10E3/uL
- ALANINE AMINOTRANSFERASE [4]: 42 u/L
- ALBUMIN [4]: 3.8 G/DL
- ALKALINE PHOSPHATASE [4]: 313 u/L
- ASPARTATE AMINOTRANSFERASE [4]: 132.33 u/L
- BLOOD UREA NITROGEN [4]: 18.67 mg/dL
- CARBON DIOXIDE [4]: 29.67 mmol/L
- CHLORIDE [4]: 99.67 MEQ/L
- CHOLESTEROL [4]: 65 mg/dL
- CREATINE PHOSPHOKINASE [4]: 254 u/L
- CREATININE [4]: 0.18 mg/dL
- GLUCOSE [4]: 187.33 mg/dL
- LACTATE DEHYDROGENASE [4]: 136.67 u/L
- LIPASE [4]: 9 u/L
- PHOSPHORUS [4]: 10.8 mg/dL
- POTASSIUM [4]: 5.21 MEQ/L
- SODIUM [4]: 143.2 MEQ/L
- TOTAL BILIRUBIN [4]: 0.2 mg/dL
- TOTAL PROTEIN [4]: 5.4 G/DL
- URIC ACID [4]: 0.73 mg/dL
